Assay results taken from the NIST ThermoML archive (doi:10.1021/je800110r).
Values joined by “and” are separate entries in the source; they are usually repeats but may differ in a detail not shown here. Equal entries are not always repeated. ± gives the expanded uncertainty stated by the source.

Conditions: 283.14 K, Liquid, Vibrating tube method

CCCCCCCCCC [decane]
Conditions	mass density
322 kPa	737.5 ± 2 kg/m3
338 kPa	737.7 ± 2 kg/m3
385 kPa	737.6 ± 2 kg/m3
479 kPa	737.8 ± 2 kg/m3
514 kPa	737.8 ± 2 kg/m3
551 kPa	737.8 ± 2 kg/m3
574 kPa	737.8 ± 2 kg/m3
589 kPa	737.8 ± 2 kg/m3
615 kPa	737.9 ± 2 kg/m3
633 kPa	737.9 ± 2 kg/m3
651 kPa	737.9 ± 2 kg/m3
665 kPa	737.9 ± 2 kg/m3
683 kPa	737.8 ± 2 kg/m3
700 kPa	737.8 ± 2 kg/m3
721 kPa	737.8 ± 2 kg/m3
740 kPa	737.9 ± 2 kg/m3
763 kPa	738 ± 2 kg/m3
783 kPa	737.9 ± 2 kg/m3
808 kPa	738 ± 2 kg/m3
833 kPa	738 ± 2 kg/m3
857 kPa	738 ± 2 kg/m3
877 kPa	738 ± 2 kg/m3
899 kPa	738 ± 2 kg/m3
931 kPa	738.1 ± 2 kg/m3
966 kPa	738.2 ± 2 kg/m3
995 kPa	738.1 ± 2 kg/m3
1025 kPa	738.1 ± 2 kg/m3
1066 kPa	738.2 ± 2 kg/m3
1103 kPa	738.2 ± 2 kg/m3
1133 kPa	738.1 ± 2 kg/m3
1173 kPa	738.3 ± 2 kg/m3
1217 kPa	738.3 ± 2 kg/m3
1247 kPa	738.2 ± 2 kg/m3
1299 kPa	738.3 ± 2 kg/m3
1359 kPa	738.3 ± 2 kg/m3
1404 kPa	738.5 ± 2 kg/m3
1536 kPa	738.5 ± 2 kg/m3
2661 kPa	739.4 ± 2 kg/m3
2677 kPa	739.3 ± 2 kg/m3
2694 kPa	739.3 ± 2 kg/m3
2848 kPa	739.5 ± 2 kg/m3
2888 kPa	739.4 ± 2 kg/m3
2910 kPa	739.5 ± 2 kg/m3
2926 kPa	739.5 ± 2 kg/m3
2942 kPa	739.5 ± 2 kg/m3
2959 kPa	739.6 ± 2 kg/m3
2987 kPa	739.6 ± 2 kg/m3
3024 kPa	739.7 ± 2 kg/m3
3042 kPa	739.6 ± 2 kg/m3
3053 kPa	739.6 ± 2 kg/m3
3064 kPa	739.7 ± 2 kg/m3
3084 kPa	739.6 ± 2 kg/m3
3192 kPa	739.6 ± 2 kg/m3
3239 kPa	739.7 ± 2 kg/m3
3249 kPa	739.8 ± 2 kg/m3
3261 kPa	739.8 ± 2 kg/m3
3321 kPa	739.8 ± 2 kg/m3
3332 kPa	739.8 ± 2 kg/m3
3814 kPa	740.2 ± 2 kg/m3
3824 kPa	740.1 ± 2 kg/m3
3837 kPa	740.2 ± 2 kg/m3
3847 kPa	740.3 ± 2 kg/m3
3862 kPa	740.2 ± 2 kg/m3
3876 kPa	740.1 ± 2 kg/m3
3887 kPa	740.3 ± 2 kg/m3
4382 kPa	740.6 ± 2 kg/m3
4686 kPa	740.8 ± 2 kg/m3
4709 kPa	740.9 ± 2 kg/m3
4730 kPa	740.8 ± 2 kg/m3
4749 kPa	740.9 ± 2 kg/m3
4854 kPa	741 ± 2 kg/m3
4879 kPa	741 ± 2 kg/m3
4901 kPa	741 ± 2 kg/m3
4924 kPa	740.9 ± 2 kg/m3
4947 kPa	741 ± 2 kg/m3
4968 kPa	741.1 ± 2 kg/m3
4992 kPa	741.1 ± 2 kg/m3
5006 kPa	741.1 ± 2 kg/m3
5028 kPa	741 ± 2 kg/m3
5042 kPa	741 ± 2 kg/m3
5058 kPa	741.1 ± 2 kg/m3
5077 kPa	741.1 ± 2 kg/m3
5094 kPa	741.2 ± 2 kg/m3
5117 kPa	741.1 ± 2 kg/m3
5136 kPa	741 ± 2 kg/m3
5156 kPa	741.1 ± 2 kg/m3
5176 kPa	741.3 ± 2 kg/m3
5205 kPa	741.3 ± 2 kg/m3
5223 kPa	741.2 ± 2 kg/m3
5244 kPa	741.2 ± 2 kg/m3
5265 kPa	741.2 ± 2 kg/m3
5316 kPa	741.3 ± 2 kg/m3
5598 kPa	741.5 ± 2 kg/m3
5751 kPa	741.6 ± 2 kg/m3
5767 kPa	741.6 ± 2 kg/m3
5776 kPa	741.6 ± 2 kg/m3
5781 kPa	741.6 ± 2 kg/m3
5783 kPa	741.6 ± 2 kg/m3
5784 kPa	741.5 ± 2 kg/m3 and 741.7 ± 2 kg/m3
5793 kPa	741.7 ± 2 kg/m3
5798 kPa	741.6 ± 2 kg/m3
5802 kPa	741.6 ± 2 kg/m3
5814 kPa	741.7 ± 2 kg/m3
5816 kPa	741.6 ± 2 kg/m3
5823 kPa	741.7 ± 2 kg/m3
5833 kPa	741.6 ± 2 kg/m3
5852 kPa	741.7 ± 2 kg/m3
5869 kPa	741.7 ± 2 kg/m3
5881 kPa	741.7 ± 2 kg/m3
5888 kPa	741.6 ± 2 kg/m3
5891 kPa	741.7 ± 2 kg/m3
5895 kPa	741.8 ± 2 kg/m3
5898 kPa	741.7 ± 2 kg/m3
5902 kPa	741.8 ± 2 kg/m3
5907 kPa	741.7 ± 2 kg/m3
5910 kPa	741.7 ± 2 kg/m3
5914 kPa	741.7 ± 2 kg/m3
5929 kPa	741.7 ± 2 kg/m3
6176 kPa	741.9 ± 2 kg/m3
6202 kPa	741.9 ± 2 kg/m3
6218 kPa	741.8 ± 2 kg/m3
6237 kPa	741.9 ± 2 kg/m3
6251 kPa	741.8 ± 2 kg/m3
6269 kPa	741.9 ± 2 kg/m3
6284 kPa	742 ± 2 kg/m3
6304 kPa	741.9 ± 2 kg/m3
6319 kPa	742 ± 2 kg/m3
6335 kPa	742 ± 2 kg/m3
6350 kPa	741.9 ± 2 kg/m3
6373 kPa	742.1 ± 2 kg/m3
6391 kPa	742.1 ± 2 kg/m3
6409 kPa	742 ± 2 kg/m3
6431 kPa	742 ± 2 kg/m3
6452 kPa	742 ± 2 kg/m3
6465 kPa	742.1 ± 2 kg/m3
6481 kPa	742 ± 2 kg/m3
